The source made the active and inactive calls. No cut-off for these calls is given here.
Legend:
[1] = test system: Klebsiella pneumoniae; assay: Antibacterial activity against VIM4 carbapenemase producing multidrug-resistant Klebsiella pneumoniae 196 clinical isolate up to 512 mg/L by broth microtiter dilution method; type: functional, organism-based
[2] = test system: Enterobacter cloacae; assay: Potentiation of meropenem-induced antibacterial activity against VIM4 carbapenemase producing multidrug-resistant Enterobacter cloacae 102 clinical isolate assessed as MIC of meropenem at 1:8 meropenem:compound ratio by broth microtiter dilution method; type: functional
[3] = test system: Pseudomonas aeruginosa; assay: Potentiation of meropenem-induced antibacterial activity against VIM2 carbapenemase producing multidrug-resistant Pseudomonas aeruginosa GR57 clinical isolate at 1:8 meropenem:compound ratio by checkerboard method; type: functional
[4] = test system: Pseudomonas aeruginosa; assay: Potentiation of meropenem-induced antibacterial activity against VIM2 carbapenemase producing multidrug-resistant Pseudomonas aeruginosa 3 clinical isolate assessed as MIC of meropenem at 1:8 meropenem:compound ratio by broth microtiter dilution method; type: functional
[5] = test system: Klebsiella pneumoniae; assay: Potentiation of meropenem-induced antibacterial activity against VIM1 carbapenemase producing multidrug-resistant Klebsiella pneumoniae 177 clinical isolate assessed as MIC of meropenem at 1:8 meropenem:compound ratio by broth microtiter dilution method; type: functional
[6] = test system: Klebsiella oxytoca; assay: Potentiation of meropenem-induced antibacterial activity against VIM4 carbapenemase producing multidrug-resistant Klebsiella oxytoca 126 clinical isolate assessed as MIC of meropenem at 1:8 meropenem:compound ratio by broth microtiter dilution method; type: functional
[7] = Toxicity in Galleria mellonella larvae assessed as survival rate up to 80 mg/kg measured at 96 hrs; type: organism-based; conditions: in vivo
[8] = test system: Pseudomonas aeruginosa; assay: Potentiation of meropenem-induced antibacterial activity against VIM2 carbapenemase producing multidrug-resistant Pseudomonas aeruginosa 11 clinical isolate at 1:8 meropenem:compound ratio by checkerboard method; type: functional
[9] = test system: Escherichia coli; assay: Antibacterial activity against VIM4 carbapenemase producing multidrug-resistant Escherichia coli 98 clinical isolate infected in Galleria mellonella larvae assessed as survival rate at 4.8 mg/kg measured at 96 hrs; type: functional, organism-based
[10] = test system: Klebsiella oxytoca; assay: Potentiation of meropenem-induced antibacterial activity against VIM4 carbapenemase producing multidrug-resistant Klebsiella oxytoca 95 clinical isolate assessed as MIC of meropenem at 1:8 meropenem:compound ratio by broth microtiter dilution method; type: functional
[11] = test system: Pseudomonas aeruginosa; assay: Potentiation of meropenem-induced antibacterial activity against VIM2 carbapenemase producing multidrug-resistant Pseudomonas aeruginosa GR57 clinical isolate assessed as MIC of meropenem at 1:8 meropenem:compound ratio by broth microtiter dilution method; type: functional
[12] = test system: Pseudomonas aeruginosa; assay: Antibacterial activity against VIM2 carbapenemase producing multidrug-resistant Pseudomonas aeruginosa 6 clinical isolate up to 512 mg/L by broth microtiter dilution method; type: functional, organism-based
[13] = test system: Pseudomonas aeruginosa; assay: Potentiation of meropenem-induced antibacterial activity against VIM2 carbapenemase producing multidrug-resistant Pseudomonas aeruginosa 16 clinical isolate assessed as MIC of meropenem at 1:8 meropenem:compound ratio by broth microtiter dilution method; type: functional
[14] = test system: Pseudomonas aeruginosa; assay: Antibacterial activity against VIM2 carbapenemase producing multidrug-resistant Pseudomonas aeruginosa 11 clinical isolate up to 512 mg/L by broth microtiter dilution method; type: functional, organism-based
[15] = test system: Pseudomonas aeruginosa; assay: Potentiation of meropenem-induced antibacterial activity against VIM2 carbapenemase producing multidrug-resistant Pseudomonas aeruginosa 50 clinical isolate at 1:8 meropenem:compound ratio by checkerboard method; type: functional
[16] = test system: Pseudomonas aeruginosa; assay: Potentiation of meropenem-induced antibacterial activity against VIM2 carbapenemase producing multidrug-resistant Pseudomonas aeruginosa 12 clinical isolate assessed as MIC of meropenem at 1:8 meropenem:compound ratio by broth microtiter dilution method; type: functional
[17] = test system: Pseudomonas aeruginosa; assay: Antibacterial activity against VIM2 carbapenemase producing multidrug-resistant Pseudomonas aeruginosa 13 clinical isolate up to 512 mg/L by broth microtiter dilution method; type: functional, organism-based
[18] = test system: Klebsiella pneumoniae; assay: Potentiation of meropenem-induced antibacterial activity against VIM1 carbapenemase producing multidrug-resistant Klebsiella pneumoniae GR54 clinical isolate at 1:8 meropenem:compound ratio by checkerboard method; type: functional
[19] = test system: Providencia stuartii; assay: Antibacterial activity against VIM1 carbapenemase producing multidrug-resistant Providencia stuartii 67 clinical isolate up to 512 mg/L by broth microtiter dilution method; type: functional, organism-based
[20] = test system: Klebsiella oxytoca; assay: Potentiation of meropenem-induced antibacterial activity against VIM4 carbapenemase producing multidrug-resistant Klebsiella oxytoca 95 clinical isolate at 1:8 meropenem:compound ratio by checkerboard method; type: functional
[21] = test system: Pseudomonas aeruginosa; assay: Potentiation of meropenem-induced antibacterial activity against VIM2 carbapenemase producing multidrug-resistant Pseudomonas aeruginosa GR57 clinical isolate infected in Galleria mellonella larvae assessed as relative risk of survival at 4.8 mg/kg measured at 96 hrs relative to control; type: functional
[22] = test system: Pseudomonas aeruginosa; assay: Potentiation of meropenem-induced antibacterial activity against VIM2 carbapenemase producing multidrug-resistant Pseudomonas aeruginosa 30 clinical isolate at 1:8 meropenem:compound ratio by checkerboard method; type: functional
[23] = test system: Pseudomonas aeruginosa; assay: Potentiation of meropenem-induced antibacterial activity against VIM2 carbapenemase producing multidrug-resistant Pseudomonas aeruginosa 6 clinical isolate assessed as MIC of meropenem at 1:8 meropenem:compound ratio by broth microtiter dilution method; type: functional
[24] = test system: Klebsiella oxytoca; assay: Potentiation of meropenem-induced antibacterial activity against VIM4 carbapenemase producing multidrug-resistant Klebsiella oxytoca 126 clinical isolate at 1:8 meropenem:compound ratio by checkerboard method; type: functional
[25] = test system: Klebsiella pneumoniae; assay: Antibacterial activity against VIM4 carbapenemase producing multidrug-resistant Klebsiella pneumoniae 128 clinical isolate up to 512 mg/L by broth microtiter dilution method; type: functional, organism-based
[26] = test system: Providencia stuartii; assay: Potentiation of meropenem-induced antibacterial activity against VIM1 carbapenemase producing multidrug-resistant Providencia stuartii 67 clinical isolate at 1:8 meropenem:compound ratio by checkerboard method; type: functional
[27] = test system: Klebsiella pneumoniae; assay: Potentiation of meropenem-induced antibacterial activity against VIM4 carbapenemase producing multidrug-resistant Klebsiella pneumoniae 120 clinical isolate infected in Galleria mellonella larvae assessed as relative risk of survival at 4.8 mg/kg measured at 96 hrs relative to control; type: functional
[28] = test system: Pseudomonas aeruginosa; assay: Potentiation of meropenem-induced antibacterial activity against VIM2 carbapenemase producing multidrug-resistant Pseudomonas aeruginosa 14 clinical isolate at 1:8 meropenem:compound ratio by checkerboard method; type: functional
[29] = test system: Klebsiella pneumoniae; assay: Potentiation of meropenem-induced antibacterial activity against VIM4 carbapenemase producing multidrug-resistant Klebsiella pneumoniae 128 clinical isolate assessed as MIC of meropenem at 1:8 meropenem:compound ratio by broth microtiter dilution method; type: functional
[30] = test system: Pseudomonas aeruginosa; assay: Antibacterial activity against VIM2 carbapenemase producing multidrug-resistant Pseudomonas aeruginosa 9 clinical isolate up to 512 mg/L by broth microtiter dilution method; type: functional, organism-based
[31] = test system: Klebsiella pneumoniae; assay: Potentiation of meropenem-induced antibacterial activity against VIM4 carbapenemase producing multidrug-resistant Klebsiella pneumoniae 196 clinical isolate assessed as MIC of meropenem at 1:8 meropenem:compound ratio by broth microtiter dilution method; type: functional
[32] = test system: Pseudomonas aeruginosa; assay: Antibacterial activity against VIM2 carbapenemase producing multidrug-resistant Pseudomonas aeruginosa 3 clinical isolate up to 512 mg/L by broth microtiter dilution method; type: functional, organism-based
[33] = test system: Escherichia coli; assay: Potentiation of meropenem-induced antibacterial activity against VIM4 carbapenemase producing multidrug-resistant Escherichia coli 98 clinical isolate infected in Galleria mellonella larvae assessed as relative risk of survival at 4.8 mg/kg measured at 96 hrs relative to control; type: functional
[34] = test system: Pseudomonas aeruginosa; assay: Potentiation of meropenem-induced antibacterial activity against VIM2 carbapenemase producing multidrug-resistant Pseudomonas aeruginosa 13 clinical isolate assessed as MIC of meropenem at 1:8 meropenem:compound ratio by broth microtiter dilution method; type: functional
[35] = test system: Pseudomonas aeruginosa; assay: Potentiation of meropenem-induced antibacterial activity against VIM2 carbapenemase producing multidrug-resistant Pseudomonas aeruginosa 6 clinical isolate at 1:8 meropenem:compound ratio by checkerboard method; type: functional

SMILES: O=C(O)/C(S)=C/c1c(Cl)ccc(Cl)c1Cl
- Activity [1]: inactive
- MIC [2]: 4 µg/mL
- fractional inhibitory concentration index (FICI) [3]: 0.19
- MIC [4]: 8 µg/mL
- MIC [5]: 1 µg/mL
- MIC [6]: 4 µg/mL
- survival at 96 h [7]: 100%
- fractional inhibitory concentration index (FICI) [8]: 0.09
- Activity [9]: Active
- MIC [10]: 8 µg/mL
- MIC [11]: 4 µg/mL
- Activity [12]: inactive
- MIC [13]: 16 µg/mL
- Activity [14]: inactive
- fractional inhibitory concentration index (FICI) [15]: 0.38
- MIC [16]: 32 µg/mL
- Activity [17]: inactive
- fractional inhibitory concentration index (FICI) [18]: 0.09
- Activity [19]: inactive
- fractional inhibitory concentration index (FICI) [20]: 0.38
- fold change (FC) [21]: 0.28
- fractional inhibitory concentration index (FICI) [22]: 0.25
- MIC [23]: 16 µg/mL
- fractional inhibitory concentration index (FICI) [24]: 0.19
- Activity [25]: inactive
- fractional inhibitory concentration index (FICI) [26]: 0.14
- fold change (FC) [27]: 0.7
- fractional inhibitory concentration index (FICI) [28]: 0.06
- MIC [29]: 1 µg/mL
- Activity [30]: inactive
- MIC [31]: 1 µg/mL
- Activity [32]: inactive
- fold change (FC) [33]: 0.64
- MIC [34]: 16 µg/mL
- fractional inhibitory concentration index (FICI) [35]: 0.38

Reference: ChEMBL document CHEMBL3792311, “In vitro and in vivo activity of ML302F: a thioenolate inhibitor of VIM-subfamily metallo -lactamases” (Medchemcomm, 2016)
